Assays:
[1] = test system: American dog tick (Dermacentor variabilis) nymphs; assay: Efficacy against nymphal-stage American dog ticks on rats, oral; assay type: in vivo; conditions: oral point dose of between 5-25 mg/kg bodyweight, 48 hours after treatment
Description: Evaluations were conducted using a modified version of the assay as described in Gutierrez et al., J. Med. Entomol. 43(3): 526-532 (2006). This assay may be modified by simply using different tick species (the reference describes Amblyomma americanum ticks), such as Dermacentor variabilis or Rhipicephalus sanguineus ticks, as well as different life-stages (larval, nymphal or adult). Further, the reference describes using topical application methods, but oral, transdermal and subcutaneous injection routes of administration may be used.
In these studies, adult male or female rats, approximately 300 grams in size, were randomly assigned to a treatment group or a control (untreated negative control or fipronil positive control) group. Each group consisted of three (3) to five (5) rats. […] On Day 2, approximately forty-eight (48) hours after treatment, live and dead ticks were removed from animals and counted.
Live tick counts were transformed using the natural logarithm transformation plus one (Ln count+1); addition of one to each count served to adjust for counts that were zero. […] GM percent efficacy of treatments was calculated using the following formula:
Enantiomers were evaluated for activity against American dog tick (Dermacentor variabilis) nymphs on rats. […] On Day 2, approximately forty-eight (48) hours after treatment, live and dead ticks were removed from animals and counted. […]

[2] = test system: adult American dog tick (Dermacentor variabilis); assay: Therapeutic (knockdown) and residual efficacy against adult American dog tick infestations on dogs, oral; assay type: in vivo; conditions: for Residual efficacy: Example 7, oral capsule 35 mg/kg
Description: The therapeutic (knockdown) and residual efficacy of 5, administered orally at a point dose of 25 mg/kg bodyweight, was evaluated against adult American dog tick (D. variabilis) infestations on dogs. Six beagle dogs were allocated to one of two treatment groups, an untreated control group (n=4 dogs) or 5 group (n=2 dogs). On Day 0, two dogs were treated with 5 via oral gavage (25 mg/ml 5, dissolved in a solution of 55% polyethylene glycol-300, 35% propylene glycol and 10% water) at a point dose of approximately 25 mg/kg. Twenty-four (24) hours before treatment (Day −1), all dogs were infested with approximately 50 unfed, adult-stage American dog ticks (D. variabilis; approximately 50% male and 50% female). On Day 1, approximately 24 hours after treatment, thumb counts were conducted to determine the number and life-status classification of ticks present on all dogs (normal, moribund or dead; attached or detached). Ticks were not removed during thumb counts. On Day 2, approximately 48 hours after treatment, all ticks were classified and removed from dogs. Dogs were re-infested with approximately 50 unfed, adult D. variabilis ticks on Days 5 and 12, with tick classification, counts and removal on Days 7 and 14 (approximately 48 hours after each infestation).
The therapeutic (knockdown) and residual efficacy of 7 and 8, each administered orally at a point dose of 25 mg/kg bodyweight, was evaluated against adult tick (Dermacentor variabilis and Rhipicephalus sanguineus) and adult cat flea (Ctenocephalides felis) infestations on dogs. Twelve (12) male and female beagle dogs were randomly allocated to one of three treatment groups, four (4) dogs per group: Untreated control; 7, 25 mg/kg; and 8, 25 mg/kg. On Day −1, all dogs were infested with approximately 50 unfed, adult D. variabilis ticks. On Day 0, dogs were orally administered gelatin capsules containing either 7 or 8 (50% technical active, 47% microcrystalline cellulose and 3% croscarmellose sodium, w/w). Ticks were counted and classified, but not removed, on all dogs on Day 1, approximately 24 hours after treatment. On Day 2, approximately 48 hours after treatment, ticks were counted, classified and removed. Dogs were re-infested with the same number of D. variabilis ticks on Days 5, 12, 19 and 28 and tick counts were conducted on Days 7, 14, 21 and 30.
The therapeutic (knockdown) and residual efficacy of 7, administered orally at a point dose of 35 mg/kg bodyweight, was evaluated against adult tick (Dermacentor variabilis and Rhipicephalus sanguineus) and adult cat flea (Ctenocephalides felis) infestations on dogs. Twelve (12) male and female beagle dogs were allocated to either an untreated, negative control group or 7 group (n=6 dogs per group). Dogs were infested with approximately 50 unfed, adult D. variabilis ticks on Days −1, 5, 12, 19, 28, 35 and 42. On Day 0, dogs were orally administered gelatin capsules containing Compound 8194 (50% technical active, 47% microcrystalline cellulose and 3% croscarmellose sodium, w/w) at a point dose of 35 mg/kg. D. variabilis tick counts and classification were conducted on Day 1 (thumb count, approximately 24 hours after treatment) and Days 2, 7, 14, 21, 30, 37 and 44 (approximately 48 hours after treatment). Following removal of D. variabilis ticks on Day 30, all dogs were co-infested with approximately 50 unfed, adult brown dog ticks (R. sanguineus) and approximately 100 unfed, adult cat fleas (C. felis). Brown dog tick and cat flea counts were conducted on Day 32 (approximately 48 hours after infestation). GM percent efficacy of treatments against both tick species and fleas was calculated using the following formula: […]
The therapeutic (knockdown) and residual efficacy of S-enantiomer, 9, administered orally at a point dose of 25 mg/kg bodyweight, was evaluated against adult tick (Dermacentor variabilis and Rhipicephalus sanguineus) and adult cat flea (Ctenocephalides felis) infestations on dogs. […]

[3] = Table 2, oral capsule 25 mg/kg, Day 2
[4] = Table 2, oral capsule 25 mg/kg, Day 7
[5] = Table 2, oral capsule 25 mg/kg, Day 14
[6] = Table 2, oral capsule 25 mg/kg, Day 21
[7] = Table 2, oral capsule 25 mg/kg, Day 30
[8] = Table 3, oral capsule 35 mg/kg, Day 2
[9] = Table 3, oral capsule 35 mg/kg, Day 7
[10] = Table 3, oral capsule 35 mg/kg, Day 14
[11] = Table 3, oral capsule 35 mg/kg, Day 21
[12] = Table 3, oral capsule 35 mg/kg, Day 30
[13] = Table 3, oral capsule 35 mg/kg, Day 37
[14] = Table 3, oral capsule 35 mg/kg, Day 44

## Cc1cc(C2=NOC(c3cc(Cl)c(Cl)c(Cl)c3)(C(F)(F)F)C2)ccc1C(=O)NCc1ccc2c(c1)B(O)OC2(C)C (stereo not drawn) [Compound 7, N-((1-Hydroxy-3,3-dimethyl-1,3-dihydrobenzo[c][1,2]oxaborol-6-yl)methyl)-2-methyl-4-(5-(3,4,5-trichlorophenyl)-5-(trifluoromethyl)-4,5-dihydroisoxazol-3-yl)benzamide]
[1]
  Maximum in vivo efficacy (% reduction in live tick counts): 7 (100%), 8 (100%),
[2]; Example 6, oral capsule 25 mg/kg, through at least 14 days
  continued residual efficacy: 100%
[2]; through Day 14
  Residual efficacy: > 99%
[2]; through Day 37
  Residual efficacy: > 95%
[2]; Table 2, oral capsule 25 mg/kg, Day 1
  Geometric mean group live parasite counts: 0.0
[2]; [3]
  % efficacy: (100) %
  Geometric mean group live parasite counts: 0.0
[2]; [4]
  % efficacy: (100) %
  Geometric mean group live parasite counts: 0.0
[2]; [5]
  % efficacy: (100) %
  Geometric mean group live parasite counts: 0.0
[2]; [6]
  % efficacy: (99.3) %
  Geometric mean group live parasite counts: 0.3
[2]; [7]
  % efficacy: (73.2) %
  Geometric mean group live parasite counts: 9.5
[2]; Table 3, oral capsule 35 mg/kg, Day 1
  Geometric mean group live parasite counts: 0.1
[2]; [8]
  % efficacy: (100) %
  Geometric mean group live parasite counts: 0.0
[2]; [9]
  % efficacy: (99.1) %
  Geometric mean group live parasite counts: 0.3
[2]; [10]
  % efficacy: (100) %
  Geometric mean group live parasite counts: 0.0
[2]; [11]
  % efficacy: (98.4) %
  Geometric mean group live parasite counts: 0.2
[2]; [12]
  % efficacy: (98.7) %
  Geometric mean group live parasite counts: 0.4
[2]; [13]
  % efficacy: (95.7) %
  Geometric mean group live parasite counts: 1.2
[2]; [14]
  % efficacy: (67.2) %
  Geometric mean group live parasite counts: 9.3

Reference: patent US8546357B2, “Boron-containing small molecules for controlling ectoparasites” (priority 2011, dated 2013)
